# Measurements taken from patent US20040248275A1, “Engineered bacterial aggregates” (priority 2003, published 2004).
# What was measured:
# Type in all cases: cell-based
# [1] = tested on: Corynebacterium aquaticum; experiment: QUAT susceptibility of single-species aggregates (survivors); conditions: for No. of survivors after 20 minutes following treatment of 100 μm aggregate with 1 mM QUAT: 100 μm single species aggregate; for No. of survivors (%) at 20 min: 1 mM QUAT
# Method: (§1) In another version of the present invention, one would test a biocide with the aggregates described above in the following manner: Volumes (1-10 mL) of customized aggregate suspensions, formed as described earlier, are held in suitable containers (microtitre plate well, mini-centrifuge tubes, pyrex glass test-tubes) to which are added appropriate concentrations of the test biocide (volume 5-25% of suspension volume). After a chosen contact times have elapsed (1-30 minutes) samples are removed to a neutralizer solution appropriate to the chosen biocide containing the antagonistic sugar (50 mM) for the chosen lectin (See Table 1). The aggregates disperse into single cell suspension that upon which simple plate count estimates of the viable surviving cell number may be conducted. Control experiments are conducted on disaggregated populations created by resuspending the customized aggregates in the antagonistic sugar (50 mM) prior to the addition of biocide.
# (§2) Single species (Pseudomonas sp. 2881, Aeromonas hydrophila and Corynebacterium aquaticum) aggregates of 10, 50 and 100 μm in size were constructed and treated with different concentrations of three simple quaternary ammonium compounds (n-alkyl dimethyl benzyl ammonium chloride where n=12, 14 or 16).
# [2] = tested on: Aeromonas hydrophila; experiment: as above; conditions: for No. of survivors after 20 minutes following treatment of 100 μm aggregate with 1 mM QUAT: 100 μm single species aggregate; for No. of survivors (%) at 20 min: 1 mM QUAT
# Method: as §1, §2
# [3] = tested on: Pseudomonas sp. 2881; experiment: as above; conditions: for No. of survivors after 20 minutes following treatment of 100 μm aggregate with 1 mM QUAT: 100 μm single species aggregate; for No. of survivors (%) at 20 min: 1 mM QUAT
# Method: as §1, §2
# [4] = tested on: C. aquaticum; experiment: QUAT susceptibility in structured multi-species aggregates (survivors); conditions: 1 mM QUAT
# Method: (§3) In another method of the present invention, one would form a multilamellar spherical aggregate in the following manner: In order to construct lamellar aggregates, aggregates of defined size should be prepared for the ‘core’ under XS (see i or ii above). Cores, either homogeneous or heterogeneous, are harvested by centrifugation (3000 g 10 minutes) and resuspended in the original volume of phosphate buffered saline (pH 7.1). Mix equal parts of the harvested core aggregates and a washed suspension of the ‘coating organism’ (1×10^7-5×10^8 cells/mL).
# as §1
# (§4) Binary lamellar aggregates were constructed for all combinations of the three test species. Core aggregate size was 50 microns diameter. Cores were coated with an equal number of the partner species. Each test species served as both core-aggregate and shell in these experiments. […] When the cells were aggregated prior to exposure to QUATs, then it became apparent that there was not only a protection afforded by aggregation but that the relative location of one species to the other affected the inactivation. Selected data is presented that compares inactivation of unordered (homogeneous) aggregates of two different species with ones where each of the partner organisms serves as either the core or shell to the other.
# [5] = tested on: A. hydrophila; experiment: as above; conditions: 1 mM QUAT
# Method: as §3, §1, §4
# [6] = tested on: Pseudomonas sp. 2881; experiment: as above; conditions: 1 mM QUAT
# Method: as §3, §1, §4
# [7] = single-species aggregate Approx. 10 μm
# [8] = single-species aggregate Approx. 50 μm
# [9] = single-species aggregate Approx. 100 μm
# [10] = 100 μm A. hydrophila - C. aquaticum aggregate, Unordered mixture
# [11] = 100 μm Pseudomonas sp. 2881 - C. aquaticum aggregate, Unordered mixture
# [12] = 100 μm aggregate, A. hydrophila shell, C. aquaticum core
# [13] = 100 μm aggregate, C. aquaticum shell, A. hydrophila core
# [14] = 100 μm aggregate, C. aquaticum shell, Pseudomonas sp. 2881 core
# [15] = 100 μm aggregate, Pseudomonas sp. 2881 shell, C. aquaticum core
# [16] = 100 μm Pseudomonas sp. 2881 - A. hydrophila aggregate, Unordered mixture
# [17] = 100 μm aggregate, A. hydrophila shell, Pseudomonas sp. 2881 core
# [18] = 100 μm aggregate, Pseudomonas sp. 2881 shell, A. hydrophila core
substance,measurement,setting,value
n-alkyl dimethyl benzyl ammonium chloride [C12 QUAT],No. of survivors after 20 minutes following treatment of 100 μm aggregate with 1 mM QUAT,[1],0.240
same,No. of survivors after 20 minutes following treatment of 100 μm aggregate with 1 mM QUAT,[2],0.635
same,No. of survivors after 20 minutes following treatment of 100 μm aggregate with 1 mM QUAT,[3],0.711
n-alkyl dimethyl benzyl ammonium chloride [C14 QUAT],No. of survivors (%) at 20 min,[1]; No aggregate (free cells),<0.00001%
same,No. of survivors (%) at 20 min,[1]; [7],0.0002%
same,No. of survivors (%) at 20 min,[1]; [8],0.0027%
same,No. of survivors (%) at 20 min,[1]; [9],0.0829%
same,No. of survivors after 20 minutes following treatment of 100 μm aggregate with 1 mM QUAT,[1],0.083
same,No. of survivors (%) at 20 min,[2]; No aggregate (free cells),<0.00001%
same,No. of survivors (%) at 20 min,[2]; [7],0.0041%
same,No. of survivors (%) at 20 min,[2]; [8],0.0282%
same,No. of survivors (%) at 20 min,[2]; [9],0.4197%
same,No. of survivors after 20 minutes following treatment of 100 μm aggregate with 1 mM QUAT,[2],0.420
same,No. of survivors (%) at 20 min,[3]; No aggregate (free cells),0.001%
same,No. of survivors (%) at 20 min,[3]; [7],0.021%
same,No. of survivors (%) at 20 min,[3]; [8],0.0598%
same,No. of survivors (%) at 20 min,[3]; [9],0.5942%
same,No. of survivors after 20 minutes following treatment of 100 μm aggregate with 1 mM QUAT,[3],0.594
same,% No. survivors after 20 minutes,[4]; [10],0.0364%
same,% No. survivors after 20 minutes,[4]; [11],0.0412%
same,% No. survivors after 20 minutes,[4]; [12],0.0457%
same,% No. survivors after 20 minutes,[4]; [13],>0.001%
same,% No. survivors after 20 minutes,[4]; [14],>0.001%
same,% No. survivors after 20 minutes,[4]; [15],0.0698%
same,% No. survivors after 20 minutes,[5]; [10],0.172%
same,% No. survivors after 20 minutes,[5]; [16],0.112%
same,% No. survivors after 20 minutes,[5]; [12],0.131%
same,% No. survivors after 20 minutes,[5]; [17],0.0065%
same,% No. survivors after 20 minutes,[5]; [13],0.365%
same,% No. survivors after 20 minutes,[5]; [18],0.176%
same,% No. survivors after 20 minutes,[6]; [16],0.241%
same,% No. survivors after 20 minutes,[6]; [11],0.264%
same,% No. survivors after 20 minutes,[6]; [17],0.319%
same,% No. survivors after 20 minutes,[6]; [14],0.425%
same,% No. survivors after 20 minutes,[6]; [18],0.147%
same,% No. survivors after 20 minutes,[6]; [15],0.219%
n-alkyl dimethyl benzyl ammonium chloride [C16 QUAT],No. of survivors after 20 minutes following treatment of 100 μm aggregate with 1 mM QUAT,[1],0.266
same,No. of survivors after 20 minutes following treatment of 100 μm aggregate with 1 mM QUAT,[2],0.594
same,No. of survivors after 20 minutes following treatment of 100 μm aggregate with 1 mM QUAT,[3],0.724
